According to patent USRE43712E1, “Methods for assaying for antidepressant therapy markers” (The Board of Trustees of the Uniersity of Illinois, priority 2000, dated 2012):

Key:
[1] = test system: Gsα; assay: Cellular localization of Gsα in C6-2B cells, immunofluorescence laser scanning confocal microscopy; type: cell-based
[2] = test system: adenylyl cyclase; assay: Adenylyl cyclase activity in sucrose density gradient fractions of Triton X-100-solubilized C6-2B cells; type: cell-based; details: 10 μM desipramine-treated C6-2B cells
Description: C6-2B cells treated as described above were used to prepare Triton-insoluble, caveolin-enriched membrane fractions by the procedure of Li et al. [J. Biol. Chem., 270:15693-15701; 1995] with minor modifications. In brief, C6-2B cells were harvested into 0.75 ml of HEPES buffer (10 mM HEPES, pH 7.5, 150 mM NaCl, 1 mM DTT, 0.3 mM PMSF) containing 1% Triton X-100. Homogenization was carried out with 10 strokes of a Potter-Elvehjem homogenizer. The homogenate was adjusted to 40% sucrose by the addition of an equal volume of 80% sucrose prepared in HEPES buffer and placed at the bottom of an ultracentrifuge tube. A step gradient containing 30, 15, and 5% sucrose was formed above the homogenate and centrifuged at 50,000 rpm for 20 h in an SW65 rotor (240,000 g). Two or three opaque bands confined between the 15 and 30% sucrose layers were harvested, diluted threefold with HEPES buffer, and pelleted in a microcentrifuge at 16,000 g. The pellet was resuspended in HEPES buffer and identified as the Triton-insoluble fraction. The 40% sucrose region of the gradient was saved as the Triton-soluble fraction. In separate experiments, the same conditions were used, but instead of isolating the three opaque bands, 100-μl fractions were collected and assayed for Gs content and adenylyl cyclase activity.
Adenylyl cyclase was assayed as described previously [Rasenick et al., Brain Res., 488:105-113; 1989]. […]

[3] = test system: Giα; assay: Detergent extraction of Giα from C6-2B glioma membranes; type: cell-based; details: C6-2B cells, 10 μM, 3 days; FIG. 4
Description: Membrane proteins were extracted sequentially from C6-2B or rat synaptic membranes as described [Yan et al., J. Neurochem., 66:1489-1495; 1996]. These membranes were stirred on ice in HEPES (15 mM, pH 7.4) containing 1% Triton X-100 for 60 min followed by centrifugation at 100,000 g for 60 min at 4° C. The supernatant was reserved (Triton X-100 extract), and the resulting pellet was resuspended in Tris (15 mM, pH 7.4) containing 1.4% Triton X-114 and 150 mM NaCl. The solution was stirred for 60 min at 4° C. and centrifuged for 30 min at 100,000 g in the cold. The supernatant was saved (Triton X-114 extract). These supernatants and remaining pellet (remainder) were subjected to sodium dodecyl sulfate (SDS)-polyacrylamide gel electophoresis (PAGE) using 10% gels. […]
Rat cortex membrane, C6-2B cell membranes, or Triton extracts of each membrane preparation were subjected to SDS-PAGE followed by electrotransfer to polyvinylidene difluoride (PVDF) membrane. […] Immunoreactivity was detected with an enhanced chemiluminescence (ECL) western blot detection system (Amersham) in accord with the manufacturer's instructions. The developed autoradiographs were analyzed by densitometry.
Experiments were conducted (as described in Example 1) to ascertain the effect of antidepressant therapy on the mobility of Giα from C6-2B glioma cells. […] Immunoreactivity was detected with an ECL western blot detection system.

[4] = test system: Gsα; assay: Detergent extraction of Gsα from rat synaptic membrane after chronic antidepressant treatment; type: in vivo; details: short-term treatment (1-day treatment of cells or 1-week treatment of rats)

Compound	Intense Gsα staining at the process tips ([1]; 3 μM for five days)	Number of cells lacking Gsα in the process tips versus control ([1]; acute treatment, one day, 10 μM)	Basal adenylyl cyclase activity ([2]; gradient fractions)	Forskolin-stimulated adenylyl cyclase activity compared with control ([2]; gradient fractions 11 and 12, 10^−4 M forskolin)	Migration of Giα to a less hydrophobic membrane fraction [3]	Effect of short-term treatment on the parameters examined [4]
CNCCCN1c2ccccc2CCc2ccccc21 [Desipramine, desipramine]	do not	not significantly different from the control	unchanged	almost a twofold increase	–	–
CNCCC(Oc1ccc(C(F)(F)F)cc1)c1ccccc1 (stereo not drawn) [Fluoxetine, fluoxetine]	–	–	–	–	did not migrate to a less hydrophobic membrane fraction	without effect
